Results reported in patent US11767564B2, “Use of SDHA as a prognostic marker and therapeutic target in uveal melanoma” (Board of Regents, The University of Texas System, priority 2017, dated 2023).

What was measured:
[1] = test system: monosomy 3 uveal melanoma cell lines; assay: Cell survival analysis with OXPHOS inhibitor IACS-10759; format: cell-based
Procedure: Cell survival analysis with monosomy and disomy 3 uveal melanoma cells in presence and absence of oxidative phosphorylation (OXPHOS) inhibitor, IACS-10759, was performed. Cells were cultured under ambient oxygen or 1% oxygen. Mitotracker Red dye staining was used to assay the extent of active mitochondria in monosomy 3 and disomy 3 cells. The percent cell survival of uveal melanoma cells treated with increasing concentrations of OXPHOS inhibitor, IACS-10759, was determined.

[2] = test system: monosomy 3 and disomy 3 cells; assay: Percent cell survival with SDHA and/or MIF inhibitors; format: cell-based; details: simultaneous 20 nM SDHA siRNA and 10 or 25 μM ISO-1; both cell lines (monosomy 3, disomy 3); FIG. 7B
Source text: FIGS. 7A-7B: (FIG. 7A) Survival rate of uveal melanoma predicted using TCGA data. SDHA and MIF expression both above median is associated with lowest survival rate. SDHA and MIF both below median is associated with highest survival rate. SDHA below median and MIF above median expression is associated with the second lowest survival rate (p<0.001). (FIG. 7B) In vitro validation of association of SDHA and MIF expression with uveal melanoma cell survival.
Accordingly, the survival rate of uveal melanoma was predicted using TCGA data of SDHA and/or MIF expression. SDHA and MIF expression both above median was associated with lowest survival rate (FIG. 7A). On the other hand, SDHA and MIF both below median was associated with highest survival rate. Thus, both SDHA and MIF expression correlate with survival rate of uveal melanoma patients and may be used for prognosis. The association of SDHA and MID with uveal melanoma survival rate was validated by measuring percent cell survival in monosomy 3 and disomy 3 cells treated with SHDA and/or MIF inhibitors. SDHA was inhibited by 20 nM siRNA and MIF was inhibited by 10 or 25 μM ISO-1.

Compound	percent cell survival, resistance to inhibitor ([1]; monosomy 3 lines under hypoxic conditions (1% oxygen) or in galactose media)	percent cell survival, resistance to inhibitor ([1]; three monosomy 3 UM cell lines compared to three lines with normal chromosome 3 copy number, increasing concentrations)	percent cell survival [2]
Cc1nc(-c2nc(-c3ccc(OC(F)(F)F)cc3)no2)nn1Cc1cccc(N2CCC(S(C)(=O)=O)CC2)c1 [IACS-10759]	resistance diminishes	more resistant to IACS-10759	–
COC(=O)CC1CC(c2ccc(O)cc2)=NO1 (stereo not drawn) [ISO-1]	–	–	highest decrease in percent cell survival
